Results on four compounds are retold here after ChEMBL document CHEMBL1201862, “PubChem BioAssay data set” (2004).

Test systems include SF-295; KM12; SK-OV-3; HCT-15; CAKI-1; HCT-116; OVCAR-3; SNB-75; IGROV-1; HOP-62; SF-539; OVCAR-4; TK-10; UO-31; HCC 2998; NCI-H522; K562; OVCAR-5; SK-MEL-28; MOLT-4.
Holding throughout (experiment): NCI tumour cell line growth inhibition, 48 h

Molecules are shown by their SMILES.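 96-well plates; 48 h exposure; 5 concentrations. Endpoints by linear interpolation between flanking doses. Not reached: highest tested concentration assigned. Abbreviation: GI50, concentration required for 50% inhibition of growth.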 Activity calls are given as the source filed them. Rule as the data show it: active = GI50 up to about 1.1 µM and inactive = higher.

For the compound `CC1SC2=NC3=C(c4ccccc4C3=O)C(c3ccccc3Cl)N2C1=O` (stereo not given), the GI50 with SF-295 is > 100 µM (inactive); with KM12, > 100 µM (inactive); in the test on SK-OV-3 it was > 100 µM (inactive); in the test with HCT-15 it was over 100 µM; with CAKI-1, > 100 µM (inactive); in the test with HCT-116, > 100 µM (inactive). Further, the GI50 in the test on OVCAR-3 was > 100 µM (inactive); in the test on SNB-75, 63 µM (inactive); in the test with IGROV-1, > 100 µM (inactive); with HOP-62, > 100 µM (inactive); in the test with SF-539, > 100 µM (inactive); in the test on OVCAR-4, 86.1 µM (inactive). Besides, the GI50 in the test on TK-10 is > 100 µM (inactive); with UO-31, > 100 µM (inactive); with HCC 2998, > 100 µM (inactive); with NCI-H522 it was 30.8 µM (inactive); in the test with K562, 90.2 µM (inactive); in the test with OVCAR-5, > 100 µM (inactive). In addition, the values for the GI50 in the test with SK-MEL-28 and in the test on MOLT-4 were > 100 µM (inactive) and 75 µM (inactive), respectively.
For the compound `COC(=O)/C=C1/N=C(N(C)/N=C/c2ccccc2)NC1=O`, the GI50 was > 100 µM (inactive) in the test on SF-295; > 100 µM (inactive) in the test on KM12; > 100 µM (inactive) with SK-OV-3; over 100 µM in the test with HCT-15; > 100 µM (inactive) in the test with CAKI-1; > 100 µM (inactive) with HCT-116. The GI50 with OVCAR-3, in the test with SNB-75, with IGROV-1, in the test with HOP-62, with SF-539 and in the test on OVCAR-4 was > 100 µM (inactive) each time. Further, the GI50 in the test on TK-10, in the test on UO-31, in the test with HCC 2998, in the test with NCI-H522, in the test with K562 and in the test with OVCAR-5 was > 100 µM (inactive) each time. The GI50 in the test with SK-MEL-28 and in the test with MOLT-4 was > 100 µM (inactive) in each case.
With `COc1ccc(C[C@H]2COC(=O)[C@@H]2Cc2cccc(Br)c2)cc1OC`, the GI50 in the test with SF-295 was 32.7 µM (inactive); with KM12, 18.8 µM (inactive); with SK-OV-3, 26.6 µM (inactive); with HCT-15 it was 29.7 µM; in the test with CAKI-1, 15.3 µM (inactive); in the test with HCT-116, 12.8 µM (inactive). The GI50 with OVCAR-3 was 20 µM (inactive); in the test with SNB-75, 8.99 µM (inactive); in the test on IGROV-1, 31.6 µM (inactive); with HOP-62 it was 31.4 µM (inactive); with SF-539 it was 19.5 µM (inactive); in the test with OVCAR-4 it was 10.4 µM (inactive). Moreover, the GI50 with TK-10 is 30.4 µM (inactive); in the test on UO-31 it was 22.9 µM (inactive); in the test with HCC 2998 it was 24.5 µM (inactive); in the test on NCI-H522 it was 19.5 µM (inactive); in the test on K562 it was 5.97 µM (inactive); in the test on OVCAR-5, 33.1 µM (inactive). For the same compound, the GI50 was 30.5 µM (inactive) in the test on SK-MEL-28 and 8.75 µM (inactive) with MOLT-4.
Turning to `CN(N=O)c1nc2c(C(N)=O)ncn2s1`, the GI50 with SF-295 is 68.2 µM (inactive); in the test with KM12, > 100 µM (inactive); with SK-OV-3, 48.6 µM (inactive); in the test on HCT-15 it was over 100 µM; in the test on CAKI-1 it was 28.1 µM (inactive); with HCT-116, 53 µM (inactive). Further, the GI50 with OVCAR-3 is 87.1 µM (inactive); in the test on SNB-75, 49 µM (inactive); with IGROV-1, 63.1 µM (inactive); with HOP-62, 28.8 µM (inactive); with SF-539, 80.7 µM (inactive); with OVCAR-4, 47.9 µM (inactive). The GI50 in the test with TK-10 is 20 µM (inactive); with UO-31, 22.2 µM (inactive); in the test with HCC 2998, 45.6 µM (inactive); in the test on NCI-H522, 76.4 µM (inactive); in the test on K562 it was 48.4 µM (inactive); in the test with OVCAR-5, > 100 µM (inactive). Besides, the GI50 in the test with SK-MEL-28 and in the test on MOLT-4 was > 100 µM (inactive) throughout.
